Measurements published in patent US12662489B2 (Sitryx Therapeutics Limited, priority 2023, dated 2026).

Columns and labels:
[1] = molecular target: T1, MTHFD1 recombinant human enzyme (Homo sapiens, UniProt P11586); experiment: MTHFD1 inhibition assay (NAD(P)H-Glo luminescence); conditions: MTHFD1 IC50, recombinant human enzyme 200 nM, NADP, band
T1 sequence (P11586 2-291 limits assumed): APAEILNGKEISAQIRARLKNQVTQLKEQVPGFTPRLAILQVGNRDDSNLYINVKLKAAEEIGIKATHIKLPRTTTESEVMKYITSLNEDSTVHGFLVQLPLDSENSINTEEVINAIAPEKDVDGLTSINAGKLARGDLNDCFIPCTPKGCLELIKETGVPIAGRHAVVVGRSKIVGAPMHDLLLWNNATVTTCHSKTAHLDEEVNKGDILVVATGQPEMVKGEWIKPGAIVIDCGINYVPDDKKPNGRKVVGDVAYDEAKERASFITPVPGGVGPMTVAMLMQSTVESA

[2] = molecular target: T2, MTHFD2 recombinant human enzyme (Homo sapiens, UniProt P13995); experiment: MTHFD2 inhibition assay (NAD(P)H-Glo luminescence); conditions: for MTHFD1/MTHFD2 IC50 ratio: selectivity of MTHFD2 inhibition over MTHFD1, band
T2 sequence (P13995 36-350): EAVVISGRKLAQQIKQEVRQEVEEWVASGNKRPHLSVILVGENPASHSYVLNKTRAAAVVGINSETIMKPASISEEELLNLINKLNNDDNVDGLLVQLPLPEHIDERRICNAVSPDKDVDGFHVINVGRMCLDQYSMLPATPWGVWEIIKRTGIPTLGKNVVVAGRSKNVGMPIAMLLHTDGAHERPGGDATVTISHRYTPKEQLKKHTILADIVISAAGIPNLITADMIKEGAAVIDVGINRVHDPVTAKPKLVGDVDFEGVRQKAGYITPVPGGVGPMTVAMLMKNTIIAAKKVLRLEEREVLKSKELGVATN

[3] = system: human CD4+ T cells; experiment: Human CD4+ T-cell proliferation assay (CFSE, CD3/28 beads); conditions: read-out: Proliferation IC50

Row | IC50 [1] [nM] | IC50 [2] [nM] | MTHFD1/MTHFD2 IC50 ratio [2] | SMILES | IC50 [3] [nM]
1 | 1000 to 5000 | 10 to 100 | J (>30) | [2H]C([2H])([2H])Oc1cc(C(=O)N2CCc3c(c(=O)oc4c(C)c(N5CCN(C)[C@@H](COC)C5)cc(C)c34)C2)c(Cl)cc1C(=O)NS(=O)(=O)N1CCCC1 [Example 328, (R)-5-chloro-2-(methoxy-d3)-4-(8-(3-(methoxymethyl)-4-methylpiperazin-1-yl)-7,10-dimethyl-5-oxo-1,3,4,5-tetrahydro-2H-chromeno[3,4-c]pyridine-3-carbonyl)-N-(pyrrolidin-1-ylsulfonyl)benzamide] | 100 to 1000
2 | 1000 to 5000 | 10 to 100 | J (>30) | COC[C@H]1CN(c2cc(Cl)c3c4c(c(=O)oc3c2C)CN(C(=O)c2cc(F)c(C(=O)NS(=O)(=O)N3CCCC3)cc2OC)CC4)CCN1C [Example 319, (R)-4-(10-chloro-8-(3-(methoxymethyl)-4-methylpiperazin-1-yl)-7-methyl-5-oxo-1,3,4,5-tetrahydro-2H-chromeno[3,4-c]pyridine-3-carbonyl)-2-fluoro-5-methoxy-N-(pyrrolidin-1-ylsulfonyl)benzamide] | 100 to 1000
3 | 100 to 1000 | 1 to 10 | J (>30) | [2H]C([2H])([2H])Oc1cc(C(=O)N2CCc3c(c(=O)oc4c(C)c(N5CCN(C)[C@@H](COC)C5)cc(Cl)c34)C2)c(F)cc1C(=O)NS(=O)(=O)N1CC2CC2C1 (stereo partly drawn) [Example 327, N-((3-azabicyclo[3.1.0]hexan-3-yl)sulfonyl)-4-(10-chloro-8-((R)-3-(methoxymethyl)-4-methylpiperazin-1-yl)-7-methyl-5-oxo-1,3,4,5-tetrahydro-2H-chromeno[3,4-c]pyridine-3-carbonyl)-5-fluoro-2-(methoxy-d3)benzamide] | 100 to 1000
4 | 1000 to 5000 | 1 to 10 | J (>30) | COC[C@H]1CN(c2cc(C)c3c4c(c(=O)oc3c2C)CN(C(=O)c2cc(OC)c(C(=O)NS(=O)(=O)N3CCCC3)cc2Cl)CC4)CCN1C [Example 329, (R)-5-chloro-2-methoxy-4-(8-(3-(methoxymethyl)-4-methylpiperazin-1-yl)-7,10-dimethyl-5-oxo-1,3,4,5-tetrahydro-2H-chromeno[3,4-c]pyridine-3-carbonyl)-N-(pyrrolidin-1-ylsulfonyl)benzamide] | 100 to 1000

More lines, now with the values behind:

Row | SMILES | IC50 [1] [nM] | IC50 [2] [nM] | MTHFD1/MTHFD2 IC50 ratio [2] | IC50 [3] [nM]
5 | COC[C@H]1CN(c2ccc3c4c(c(=O)oc3c2C)CN(C(=O)c2cc(N(C)C)c(C(=O)NS(=O)(=O)N3CC5CC5C3)cc2F)CC4)CCN1C (stereo partly drawn) [Example 181, N-((3-azabicyclo[3.1.0]hexan-3-yl)sulfonyl)-2-(dimethylamino)-5-fluoro-4-(8-((R)-3-(methoxymethyl)-4-methylpiperazin-1-yl)-7-methyl-5-oxo-1,3,4,5-tetrahydro-2H-chromeno[3,4-c]pyridine-3-carbonyl)benzamide] | 100 to 1000 | 10 to 100 | H (>9.0 to 30) | 10 to 30
6 | COC[C@H]1CN(c2cc(Cl)c3c4c(c(=O)oc3c2C)CN(C(=O)c2cc(N(C)C)c(C(=O)NS(=O)(=O)N3CC[C@H](F)C3)cc2F)CC4)CCN1C [Example 302, 4-(10-chloro-8-((R)-3-(methoxymethyl)-4-methylpiperazin-1-yl)-7-methyl-5-oxo-1,3,4,5-tetrahydro-2H-chromeno[3,4-c]pyridine-3-carbonyl)-2-(dimethylamino)-5-fluoro-N-(((S)-3-fluoropyrrolidin-1-yl)sulfonyl)benzamide] | 100 to 1000 | 10 to 100 | J (>30) | 10 to 30
7 | COC[C@H]1CN(c2cc(Cl)c3c4c(c(=O)oc3c2C)CN(C(=O)c2cc(N(C)C)c(C(=O)NS(=O)(=O)N(C)C)cc2Cl)CC4)CCN1C [Example 291, (R)-5-chloro-4-(10-chloro-8-(3-(methoxymethyl)-4-methylpiperazin-1-yl)-7-methyl-5-oxo-1,3,4,5-tetrahydro-2H-chromeno[3,4-c]pyridine-3-carbonyl)-2-(dimethylamino)-N-(N,N-dimethylsulfamoyl)benzamide] | 1000 to 5000 | 10 to 100 | J (>30) | 30 to 100
8 | COC[C@H]1CN(c2cc(C)c3c4c(c(=O)oc3c2C)CN(C(=O)c2ccc(C(=O)NS(=O)(=O)N3CCC5(CC3)CC5)c(OC)c2F)CC4)CCN1C [Example 155, (R)-N-((6-azaspiro[2.5]octan-6-yl)sulfonyl)-3-fluoro-2-methoxy-4-(8-(3-(methoxymethyl)-4-methylpiperazin-1-yl)-7,10-dimethyl-5-oxo-1,3,4,5-tetrahydro-2H-chromeno[3,4-c]pyridine-3-carbonyl)benzamide] | 100 to 1000 | 10 to 100 |  | 10 to 30
9 | COC[C@H]1CN(c2cc(C)c3c4c(c(=O)oc3c2C)CN(C(=O)c2ccc(C(=O)NS(=O)(=O)N3CCCC3)c(OC(C)C)c2F)CC4)CCN1C [Example 149, (R)-3-fluoro-2-isopropoxy-4-(8-(3-(methoxymethyl)-4-methylpiperazin-1-yl)-7,10-dimethyl-5-oxo-1,3,4,5-tetrahydro-2H-chromeno[3,4-c]pyridine-3-carbonyl)-N-(pyrrolidin-1-ylsulfonyl)benzamide] | 10 to 100 | 1 to 10 | F (<3) | 1 to 10
10 | COC[C@H]1CN(c2cc(C)c3c4c(c(=O)oc3c2C)CN(C(=O)c2ccc(C(=O)NS(=O)(=O)N3CCCC3)c(N3CCCC3)c2F)CC4)CCN1C [Example 98, (R)-3-fluoro-4-(8-(3-(methoxymethyl)-4-methylpiperazin-1-yl)-7,10-dimethyl-5-oxo-1,3,4,5-tetrahydro-2H-chromeno[3,4-c]pyridine-3-carbonyl)-2-(pyrrolidin-1-yl)-N-(pyrrolidin-1-ylsulfonyl)benzamide] | 10 to 100 | 1 to 10 | F (<3) | 10 to 30
11 | CCOc1c(C(=O)NS(=O)(=O)N2C3CCC2CC3)ccc(C(=O)N2CCc3c(c(=O)oc4c(C)c(N5CCN(C)[C@@H](COC)C5)cc(C)c34)C2)c1F [Example 228] | 100 to 1000 | 10 to 100 | G (^ 3 to 9.0) | 1 to 10
12 | COC[C@H]1CN(c2cc(C)c3c4c(c(=O)oc3c2C)CN(C(=O)c2cc(F)c(C(=O)NS(=O)(=O)N3CCCC3)cc2OC)CC4)CCN1C [Example 266, (R)-2-fluoro-5-methoxy-4-(8-(3-(methoxymethyl)-4-methylpiperazin-1-yl)-7,10-dimethyl-5-oxo-1,3,4,5-tetrahydro-2H-chromeno[3,4-c]pyridine-3-carbonyl)-N-(pyrrolidin-1-ylsulfonyl)benzamide] | 100 to 1000 | 1 to 10 | J (>30) | 1000 to 5000
13 | COC[C@H]1CN(c2cc(C)c3c4c(c(=O)oc3c2C)CN(C(=O)c2cc(N(C)C)c(C(=O)NS(=O)(=O)N(C)C3CC3)cc2F)CC4)CCN1C [Example 257, (R)-N-(N-cyclopropyl-N-methylsulfamoyl)-2-(dimethylamino)-5-fluoro-4-(8-(3-(methoxymethyl)-4-methylpiperazin-1-yl)-7,10-dimethyl-5-oxo-1,3,4,5-tetrahydro-2H-chromeno[3,4-c]pyridine-3-carbonyl)benzamide] | 100 to 1000 | 1 to 10 | J (>30) | 1 to 10
